Source: patent publication US6340705B1, “Use of α-linolenic acid metabolites for treatment or prevention of cancer” (Monsanto Technology, LLC, priority 1999, dated 2002)
Marks after values point to notes of the source that are not given here.

Key:
HepG2 cells [1] = assay: Uptake of 14C-ALA, 14C-SDA and 14C-EPA by HepG2 cells; format: in vitro ADME
Protocol: To a culture medium containing HepG2 cells was added 20 μM ^14C-ALA, ^14C-SDA or ^14C-EPA complexed to fatty acid free BSA. The amount of ^14C-ALA, ^14C-SDA or ^14-EPA EPA Taken up by the HepG2 cells was measured 6 hours, 24 hours and 48 hours after addition of the fatty acid. A scintillation counter was used to measure the total amount of radioactivity in the HepG2 cells and the amount remaining in the medium.

HepG2 cells [2] = assay: Metabolism of radiolabeled fatty acids to long chain n-3 PUFAs (EPA, DHA) in HepG2 cells; format: in vitro ADME
Protocol: HepG2 cells were allowed to take up ^14C-ALA or ^14C-SDA as described in Example 2. The total amount of ^14C-EPA, ^14C-DPA and ^14C-DHA present in the HepG2 cells was measured 6 hours, 24 hours and 48 hours after addition of the fatty acid by argentation thin layer chromatography (TLC). The amount of each fatty acid present as a band on the TLC plate was quantified by electronic autoradiography using an Instant Imager supplied by Packard (Meriden, Conn.).
HepG2 cells were allowed to take up ^14C-ALA, ^14C-SDA or ^14C-EPA as described in Example 2. The amount of ^14C-EPA and ^14C-DHA present in the HepG2 cells was measured 6 hours, 24 hours and 48 hours after addition of the fatty acids by argentation thin layer chromatography (TLC) as described in Example 3. The amount of ^14C-EPA and ^14C-DHA present as bands on the TLC plate were quantified by electronic autoradiography using an Instant Imager as described in Example 3.

[3] = Arachidonic acid level in phospholipid fraction of small intestine, Min/+ mouse; format: in vivo; settings: Min/+ mice, fed as ethyl esters, 10 g/day human equivalent dose in US17 diet
Protocol: Fatty acid composition was determined in the small intestine because that is where the vast majority of polyps form. These fatty acid esters were added to the US17 diet as discussed in Example 8. The arachidonic acid level in the phospholipid fraction of the small intestines of the mice was determined by gas chromatography. In FIG. 11, bars labeled with the same letter (e.g., control and CLA, both labeled with a “b”) have values which, statistically, are not different.

HT-29 cells = assay: Primary tumor growth in the nude mouse/HT-29 cancer model; format: in vivo; settings: nude mice, HT-29 cells in footpad, US17 diet containing stearidonic acid 3% (10 g/day human equivalent dose), after 35 days
Protocol: The efficacy of stearidonic acid (18:4n-3) in inhibiting primary tumor growth was evaluated using the nude mouse/HT-29 model. The nude mouse/HT-29 model has been described previously. Hernandez-Alcoceloa R., Fernandez, F., Lacal, J C, Cancer Res., 59(13), 312-18 (1999); Fantini, J., Cancer J., 5(2) (1992).
Nude (i.e., immunodeficient) mice were fed the US17 diet for three weeks. HT-29 cells were cultured in RPMI-1640 medium supplemented with fetal bovine serum, penicillin, and streptomycin (Gibco, Grand Island, N.Y.) and maintained in a CO2 atmosphere at 37° C. After achieving the optimal cell density, the HT-29 cells were rinsed and then suspended in phosphate buffered saline (PBS). A cell suspension was made in MATRIGEL (Becton Dickinson Labware, Bedford, Mass.). The suspension was ⅔ by volume cells in PBS and ⅓ by volume MATRIGEL. MATRIGEL provides an extracellular matrix secreted by […]. The matrix contains angiogenic and cell proliferation growth factors that aid in HT-29 cell attachment and proliferation as a primary tumor.
One million cells were injected in a 30 μl volume into the subplanter area of the righthind footpad of the nude mice. […] The amount of primary tumor growth was measured by measuring the change in mouse footpad volume over time. Footpad volume was measured with a plethysmometer (Ugo Basile, Camerio-Varese, Italy).

[4] = format: in vivo, rats; settings: rats, US17 diet with 1, 3 or 10 g/day human equivalent dose, one month
From the text: Mice were fed a US17 diet containing α-linolenic acid ethyl ester (ALA-EE), stearidonic acid ethyl ester (SDA-EE), eicosapentaenoic acid ethyl ester (EPA-EE), or docosahexaenoic acid ethyl ester (DHA-EE) in an amount equivalent to a human western diet containing 1, 3 or 10 g/day of the fatty acid (g/day human equivalent dose). In order to maintain a 17% fat (37 en %) content in the US17 diet, oleic acid (18:1 n-9), as an oleic acid cassette, was removed from the US17 diet in an amount equal to the amount of fatty acid ester that was added. Oleic acid was selected as the replacement fatty acid because literature reports indicate that oleic acid is neutral with respect to inflammation and cancer.
After one month on the respective US17-based diets, the mice were sacrificed and the fatty acid composition of each of their livers was analyzed by gas chromatography. The results of these analyses are pressured in FIG. 8.
The method used was as described in Example 6 except that rats were used in place of mice.

[5] = tested on: Min/+ mouse model of intestinal cancer; assay: Intestinal polyp formation in the Min/+ mouse model of intestinal cancer; format: in vivo; parameters: Avg. large intestine tumor size: unit not given here; settings: Min/+ mice
Protocol: The efficacy of select n-3 and n-6 polyunsaturated fatty acids was evaluated in the Min/+ mouse model of intestinal cancer. The following fatty acid ethyl esters were tested for their effect on intestinal polyp formation: 1) ALA-EE; 2) SDA-EE; 2) EPA-EE; 4) DHA-EE; 5) GLA-EE ([…], 18:3 n-6); and 6) CLA-EE (conjugated linoleic acid; c9t11-18:2 (77%)+c9c11-18:2 (18%)+other isomers (5%)).
These fatty acid ethyl esters were added to the US17 diet to provide 10 g/day human equivalent dose (3% wt.). The NSAID, sulindac (320 ppm), served as the positive control. In order to maintain a 17% fat (37 en%) content in the US17 diet, oleic acid (18:1 n-9) was removed from the US17 diet in an amount equal to the amount of the fatty acid ethyl ester that was added. Mice were received at approximately five weeks of age and were fed the test diets upon receipt. After seven weeks on the respective test diet, the mice were sacrificed and the intestinal polyps were counted and measured.

[6] = large intestine and small intestine, versus US17 diet, 10 g/day human equivalent dose
[7] = 10 g/day human equivalent dose (3% wt.) or sulindac 320 ppm, seven weeks, mean ± SEM
[8] = 10 g/day human equivalent dose (3% wt.) or sulindac 320 ppm, seven weeks, mean ± SEM, tumor number × tumor size
[9] = fatty acid ethyl ester 10 g/day human equivalent dose (3% wt.) in US17 diet or sulindac 320 ppm, seven weeks
[10] = large and small intestine, 10 g/day human equivalent dose (3% wt.) or sulindac 320 ppm, seven weeks, mean ± SEM

CC/C=C\C/C=C\C/C=C\C/C=C\CCCCC(=O)O [SDA, stearidonic acid]
radiolabeled fatty acid taken up by the cells (HepG2 cells [1]; 20 μM complexed to fatty acid free BSA, within the first six hours of incubation): Approximately 95%
uptake by HepG2 cells, comparison (FIG. 1) (HepG2 cells [1]; 20 μM, 6, 24 and 48 hours): taken up equally
metabolism to long chain n-3 PUFAs, comparison (FIG. 2 to FIG. 3) (HepG2 cells [2]): faster than that of ALA
rate of metabolism to EPA and further to DHA relative to ALA (HepG2 cells [2]): approximately twice that of ALA
metabolized to 14C-fatty acid end products (EPA or DHA) or intermediates (20:4 n-3, 22:5 n-3, 24:5 n-3) (HepG2 cells [2]; 20 μM): ~95%
decreasing the level of arachidonic acid in the small intestine (phospholipid fraction, FIG. 11) [3]: more effective than ALA, EPA and DHA
less primary tumor growth (footpad volume) than US17 diet (HT-29 cells): 33%
level of arachidonic acid in liver tissue (FIG. 9) [4]: greater decrease in the level of arachidonic acid than did either ALA or EPA
effectiveness in inhibiting polyp formation and development in the large intestine ([5]; 10 g/day human equivalent dose): comparable to that of sulindac
effectiveness in inhibiting polyp formation and development in the small intestine ([5]; 10 g/day human equivalent dose): comparable to that of EPA
decrease in polyp load (number×size) [5, 6]: 56%
decrease in polyp number [5, 6]: 47%
decrease in polyp size [5, 6]: 18%
Total small intestine tumors/group ([5]; 10 g/day human equivalent dose (3% wt.) or sulindac 320 ppm, seven weeks): 185
Avg. large intestine tumors/mouse [5, 7]: 0.2 ± 0.1^d
Avg. small intestine tumor size [5, 7]: 1.07 ± 0.02^ab mm
Avg. small intestine tumors/mouse [5, 7]: 18.5 ± 1.9^c
Avg. large intestine tumor size ([5]; 10 g/day human equivalent dose (3% wt.) or sulindac 320 ppm, seven weeks, mean ± SEM, only animals bearing colonic tumors): 1.50 ± 0.00^b
Avg. large intestine tumor load [5, 8]: 0.30 ± 0.20^d mm
Avg. small intestine tumor load [5, 8]: 19.90 ± 2.11^cd mm
Total large intestine tumors/group [5, 9]: 2
Total large intestine tumors/group, figure in brackets (animals bearing tumors/animals in group) [5, 9]: 2/10
Total Avg. overall tumor load [5, 10]: 20.19 ± 2.24^cd mm
Total Avg. overall tumor size [5, 10]: 1.08 ± 0.02^d mm
Total Avg. tumors/mouse [5, 10]: 18.7 ± 1.9^a
